Patent publication US9765075B2, “Substituted bridged urea analogs as sirtuin modulators” (GLAXOSMITHKLINE LLC, priority 2013, dated 2017)
Like-named read-outs stand apart in the source and are kept apart here.

Biological target: T1, SIRT1 (Homo sapiens, UniProt Q96EB6)
T1 sequence (Q96EB6 1-747): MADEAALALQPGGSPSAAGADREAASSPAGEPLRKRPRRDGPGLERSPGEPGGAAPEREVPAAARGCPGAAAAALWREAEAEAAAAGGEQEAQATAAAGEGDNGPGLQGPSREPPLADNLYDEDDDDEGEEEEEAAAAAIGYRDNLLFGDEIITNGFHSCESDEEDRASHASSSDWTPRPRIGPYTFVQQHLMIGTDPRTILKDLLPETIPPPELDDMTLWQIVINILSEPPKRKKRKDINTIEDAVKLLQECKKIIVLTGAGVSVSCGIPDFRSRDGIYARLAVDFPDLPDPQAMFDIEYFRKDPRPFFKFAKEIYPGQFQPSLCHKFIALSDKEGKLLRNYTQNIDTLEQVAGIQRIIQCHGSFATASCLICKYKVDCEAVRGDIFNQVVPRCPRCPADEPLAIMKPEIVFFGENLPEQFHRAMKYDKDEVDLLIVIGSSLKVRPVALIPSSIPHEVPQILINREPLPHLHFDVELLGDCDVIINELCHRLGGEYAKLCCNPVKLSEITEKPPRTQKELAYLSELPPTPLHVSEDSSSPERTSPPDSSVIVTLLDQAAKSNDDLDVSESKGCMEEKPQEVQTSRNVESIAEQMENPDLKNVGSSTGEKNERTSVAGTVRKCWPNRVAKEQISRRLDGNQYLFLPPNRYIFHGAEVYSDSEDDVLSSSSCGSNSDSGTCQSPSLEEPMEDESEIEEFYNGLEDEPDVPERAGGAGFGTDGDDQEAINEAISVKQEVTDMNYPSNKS
Test: Trp mass spectrometry assay (SIRT1 activation)
Format: biochemical
Conditions: for Emax: percent maximum fold activation of SIRT1, read-out: Tryp % Fold Act
Procedure, shortened: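 Activation is expressed as EC1.5, the concentration raising activity 50% above DMSO control, and as maximum percent of control. Mass-spec readout was OAADPR or deacetylated Trp peptide after a formic-acid-quenched 25-min, 25 °C reaction: 10 nM bacterially expressed His-SIRT1, 0.5 μM acetyl-p53-derived peptide, 120 μM NAD+, pH 7.5 HEPES with […].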

[1] = concentration of test compound that results in 150% activation of SIRT1, Trp peptide substrate
[2] = Trp mass spectrometry assay, EC1.5 = concentration of test compound that results in 150% activation of SIRT1
[3] = Trp mass spectrometry assay, EC1.5 = concentration giving 150% activation of SIRT1

SMILES	Tryp AVG EC1.5 (μM) [1]	Emax (Trp peptide substrate) [%]	Emax (Trp mass spectrometry assay) [%]	Tryp AVG EC1.5 (μM) [2]	Tryp AVG EC1.5 (μM) [3]
O=C(Nc1cncc(F)c1)N1c2nc(-c3cncc(Cl)c3)ccc2N2CCC1CC2 [Example 545]	B (EC1.5 1-25 μM)	≥ 150			
Cc1cc(-c2ccc3c(n2)N(C(=O)Nc2ccncn2)[C@H]2CCN3C2)ccn1 [Example 468]	B (EC1.5 1-25 μM)	≥ 150			
Cc1ccncc1-c1ccc2c(n1)N(C(=O)Nc1cccnc1)[C@H]1CCCN2C1 [Example 516]	B (EC1.5 1-25 μM)	≥ 150			
CC(C)c1cccc(C(C)C)c1NC(=O)N1c2nc(-c3cccc(C(F)(F)F)c3)ccc2N2CC[C@H]1C2 [Example 67]			< 150		
N#Cc1ccccc1-c1ccc2c(n1)N(C(=O)Nc1cncc(F)c1)[C@H]1CCCN2C1 [Example 439]	B (EC1.5 1-25 μM)	≥ 150			
Cc1ccc(-c2ccc3c(n2)N(C(=O)Nc2ccc(F)cn2)[C@H]2CCN3C2)cn1 [Example 237]	B (EC1.5 1-25 μM)	≥ 150			
CN(C)c1cccc(-c2ccc3c(n2)N(C(=O)Nc2cccc(-c4cnco4)c2)[C@@H]2CCCN3C2)c1 [Example 264]	A (EC1.5<1 μM)	≥ 150			
O=C(Nc1cnccn1)N1c2nc(-c3cc(F)cc(F)c3)ccc2N2CC[C@H]1C2 [Example 397]	C (EC1.5>25 μM)	≥ 150			
O=C(Nc1cnccn1)N1c2nc(-c3cncc(C(F)(F)F)c3)ccc2N2CC[C@H]1C2 [Example 278]	A (EC1.5<1 μM)	≥ 150			
Cc1nc(NC(=O)N2c3nc(-c4cccc(C(F)(F)F)c4)ccc3N3CC[C@H]2C3)nc2c1CCC2 [Example 91]			≥ 150	B (EC1.5 1-25 μM)	
O=C(Nc1cccnn1)N1c2nc(-c3cncc(C(F)(F)F)c3)ccc2N2C[C@@H](O)[C@H]1C2 [Example 701]			≥ 150		B (EC1.5 1-25 μM)
COc1cc(NC(=O)N2c3nc(-c4cccc(C(F)(F)F)n4)ccc3N3CC[C@H]2C3)ncn1 [Example 339]	B (EC1.5 1-25 μM)	≥ 150			
Cc1nc(NC(=O)N2c3nc(-c4cncc(Cl)c4)ccc3N3CCC[C@H]2C3)sc1C [Example 402]	A (EC1.5<1 μM)	≥ 150			
O=C(Nc1ccncc1F)N1c2nc(-c3cccc(Cl)c3)ccc2N2CC[C@H]1C2 [Example 24]			≥ 150		
O=C(Nc1cncc(F)c1)N1c2nc(-c3ccnc(N4CC[C@@H](F)C4)c3)ccc2N2CC[C@H]1C2 [Example 464]	B (EC1.5 1-25 μM)	≥ 150			
CS(=O)(=O)N1CCCN(c2ccc3c(n2)N(C(=O)Nc2ccncn2)[C@H]2CCCN3C2)CC1 [Example 433]	B (EC1.5 1-25 μM)	≥ 150			
O=C(Nc1ccc(F)cn1)N1c2nc(-c3cccc(N4CC[C@@H](F)C4)c3)ccc2N2CC[C@H]1C2 [Example 269]	B (EC1.5 1-25 μM)	≥ 150			
O=C(Nc1cc(-c2cnco2)ccn1)N1c2nc(-c3cccc(C(F)(F)F)c3)ccc2N2C[C@@H](O)[C@H]1C2 [Example 662]			≥ 150		B (EC1.5 1-25 μM)
O=C(Nc1ccccn1)N1c2nc(-c3cccnc3)ccc2N2CCC[C@H]1C2 [Example 441]	B (EC1.5 1-25 μM)	≥ 150			
O=C(Nc1ccnc(OCC(O)CO)n1)N1c2nc(-c3cccc(F)c3)ccc2N2CC[C@H]1C2 (some centres unmarked) [Example 65]			≥ 150		
COc1cc(NC(=O)N2c3nc(-c4ccccc4C#N)ccc3N3CCC[C@H]2C3)ncn1 [Example 440]	C (EC1.5>25 μM)	< 150			
Cc1csc(NC(=O)N2c3nc(N4CCCC(C(F)(F)F)C4)ccc3N3CCC[C@H]2C3)n1 (some centres unmarked) [Example 297]	B (EC1.5 1-25 μM)	≥ 150			

SMILES	Tryp AVG EC1.5 (μM) [1]	Emax (Trp peptide substrate) [%]	Emax (Trp mass spectrometry assay) [%]	Tryp AVG EC1.5 (μM) [2]	Tryp AVG EC1.5 (μM) [3]
O=C1CN2C[C@H]1N(C(=O)Nc1ccccn1)c1nc(-c3cccc(C(F)(F)F)c3)ccc12 [Example 620]	B (EC1.5 1-25 μM)	≥ 150			
Cc1nc(NC(=O)N2c3nc(-c4cncc(C(F)(F)F)c4)ccc3N3CCC[C@H]2C3)sc1C [Example 427]	A (EC1.5<1 μM)	≥ 150			
O=C(Nc1ccncn1)N1c2nc(-c3cccc(C(F)(F)F)c3)ccc2N2C[C@@H](O)[C@H]1C2 [Example 669]			≥ 150		B (EC1.5 1-25 μM)
NS(=O)(=O)c1ccc(NC(=O)N2c3nc(-c4cccc(C(F)(F)F)c4)ccc3N3CC[C@H]2C3)cc1 [Example 643]			≥ 150		A (EC1.5<1 μM)
O=C(Nc1cncc(F)c1)N1c2nc(-c3cccc(C(F)(F)F)c3)ccc2N2CCC[C@@H]1C2 [Example 273]	A (EC1.5<1 μM)	≥ 150			
O=C(Nc1ccccn1)N1c2nc(-c3ccc4nonc4c3)ccc2N2CC[C@H]1C2 [Example 372]	B (EC1.5 1-25 μM)	≥ 150			
CN(C)c1cccc(-c2ccc3c(n2)N(C(=O)Nc2ccc(F)cn2)[C@H]2CCCN3C2)c1 [Example 384]	B (EC1.5 1-25 μM)	≥ 150			
O=C(Nc1ccccn1)N1c2nc(-c3cccc(C(F)(F)F)c3)ccc2N2CC[C@@H]1C2 [Example 823]			≥ 150		A (EC1.5<1 μM)
O=C(Nc1cccc(-c2cnco2)n1)N1c2nc(-c3cccc(C(F)(F)F)c3)ccc2N2CC[C@H]1C2 [Example 588]	A (EC1.5<1 μM)	≥ 150			
COc1cc(NC(=O)N2c3nc(-c4cncc(F)c4)ccc3N3CCC2CC3)ncn1 [Example 579]	B (EC1.5 1-25 μM)	≥ 150			
COc1cc(NC(=O)N2c3nc(-c4cccc(C(F)(F)F)c4)ccc3N3CCC2CC3)nc(OC)n1 [Example 170]			≥ 150	A (EC1.5<1 μM)	
O=C(Nc1ccnc(OCC(O)CO)n1)N1c2nc(-c3cccc(Cl)c3)ccc2N2CC[C@H]1C2 (some centres unmarked) [Example 54]			≥ 150		
Cc1cnc2c(NC(=O)N3c4nc(-c5cccc(C(F)(F)F)c5)ccc4N4CC[C@H]3C4)cccc2n1 [76 (8)]			≥ 150	A (EC1.5<1 μM)	
COc1nccc(NC(=O)N2c3nc(-c4cccc(C(F)(F)F)c4)ccc3N3CC[C@H]2C3)n1 [Example 47]			≥ 150		
CN(C)[C@H]1CCN(c2ccc3c(n2)N(C(=O)Nc2cnccn2)[C@H]2CCN3C2)C1 [Example 246]	B (EC1.5 1-25 μM)	≥ 150			
CC(=O)O[C@H]1CN2C[C@H]1N(C(=O)Nc1ccccn1)c1nc(-c3cccc(C(F)(F)F)c3)ccc12 [Example 634]			< 150		C (EC1.5>25 μM)
Cn1ccc(NC(=O)N2c3nc(-c4cccc(C(F)(F)F)c4)ccc3N3CC[C@H]2C3)n1 [Example 25]			≥ 150		
O=C(Nc1ccc(F)cn1)N1c2nc(-c3cccc(Cl)c3)ccc2N2CCC[C@H]1C2 [Example 141]			≥ 150	A (EC1.5<1 μM)	
Cc1cc(NC(=O)N2c3nc(N4CC[C@H](N(C)C)C4)ccc3N3CC[C@H]2C3)cc(C)n1 [Example 245]	B (EC1.5 1-25 μM)	≥ 150			
CN(C)[C@H]1CCN(c2ccc3c(n2)N(C(=O)Nc2cncc(F)c2)[C@H]2CCN3C2)C1 [Example 244]	B (EC1.5 1-25 μM)	≥ 150			
O=C(Nc1ccncc1F)N1c2nc(-c3cccc(OC[C@@H](O)CO)c3)ccc2N2CC[C@H]1C2 [Example 157]			≥ 150	B (EC1.5 1-25 μM)	
